Where a name gives a salt, the structure may show the parent alone.
Target: T1, rabbit erythrocyte Na^+ /H^+ exchanger (Oryctolagus cuniculus, UniProt P23791)
T1 construct: determine the Na^+ influx into the erythrocytes by way of Na^+ /H^+ exchange; endogenous in cells; host or cells: erythrocytes in whole blood of cholesterol-fed New Zealand White rabbits
Assay: Inhibition of the rabbit erythrocyte Na^+ /H^+ exchanger (amiloride-sensitive Na^+ influx, flame photometry)
Type: cell-based, New Zealand White rabbits
Conditions: erythrocytes of cholesterol-fed rabbits; pH 7.4, 37° C., hyperosmolar salt/sucrose medium
Text: Inhibition of the rabbit erythrocyte Na^+ /H^+ exchanger New Zealand White rabbits (Ivanovas) were given a standard diet containing 2% cholesterol for six weeks in order to activate the Na^+ /H^+ exchange and thereby render it possible to use flame photometry to determine the Na^+ influx into the erythrocytes by way of Na^+ /H^+ exchange. The blood was withdrawn from the aural arteries and rendered incoagulable by adding 25 IU of potassium heparin. One part of each sample was used for determining the hematocrit in duplicate by means of centrifugation. Aliquots of in each case 100 μl were used for measuring the initial Na^+ content of the erythrocytes.
In order to determine the amiloride-sensitive sodium influx, 100 μl of each blood sample were in each case incubated, at pH 7.4 and 37° C., in 5 ml of a hyperosmolar salt/sucrose medium (mmol/l: 140 NaCl, 3 KCl, 150 sucrose, 0.1 ouabain, 20 tris(hydroxymethyl)aminomethane). After that, the erythrocytes were washed three times with an ice-cold solution of MgCl2 /ouabain (mmol/l: 112 MgCl2, 0.1 ouabain) and hemolyzed in 2.0 ml of distilled water. The intracellular sodium content was determined by flame photometry.
The net influx of Na^+ was calculated from the difference between the initial sodium values and the sodium content of the erythrocytes after incubation. The amiloride-inhibitable sodium influx was obtained from the difference in the sodium content of the erythrocytes after incubating with and without 3×10^-4 mol/l amiloride. The same procedure was adopted in the case of the novel compounds.

T1 sequence (P23791 whole entry): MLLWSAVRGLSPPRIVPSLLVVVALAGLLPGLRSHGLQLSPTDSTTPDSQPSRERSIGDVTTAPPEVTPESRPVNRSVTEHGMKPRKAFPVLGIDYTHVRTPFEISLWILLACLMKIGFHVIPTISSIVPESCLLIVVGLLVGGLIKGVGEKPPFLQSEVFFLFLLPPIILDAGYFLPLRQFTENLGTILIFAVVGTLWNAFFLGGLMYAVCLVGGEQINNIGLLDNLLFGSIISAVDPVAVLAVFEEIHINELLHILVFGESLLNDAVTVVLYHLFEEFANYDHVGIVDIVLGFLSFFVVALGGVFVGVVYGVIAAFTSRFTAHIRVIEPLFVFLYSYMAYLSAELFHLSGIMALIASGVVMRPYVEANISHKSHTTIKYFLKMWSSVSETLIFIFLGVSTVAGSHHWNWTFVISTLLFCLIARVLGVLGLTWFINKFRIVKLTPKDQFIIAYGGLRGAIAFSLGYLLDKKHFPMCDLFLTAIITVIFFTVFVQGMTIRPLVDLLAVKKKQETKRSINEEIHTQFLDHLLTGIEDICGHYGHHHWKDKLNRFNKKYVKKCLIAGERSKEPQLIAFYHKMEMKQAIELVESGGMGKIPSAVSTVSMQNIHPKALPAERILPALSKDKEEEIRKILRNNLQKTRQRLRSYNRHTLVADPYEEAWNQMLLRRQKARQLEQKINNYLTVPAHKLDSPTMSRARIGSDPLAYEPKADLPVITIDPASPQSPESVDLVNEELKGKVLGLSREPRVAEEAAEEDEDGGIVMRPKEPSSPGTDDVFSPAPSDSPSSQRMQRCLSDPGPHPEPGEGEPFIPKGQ

Row | IC50 | Structure (SMILES)
1 | 4000 nM | NC(N)=NC(=O)c1ccc(O)cc1Cl [Example 1, 2-Chloro4-hydroxybenzoylguanidine hydrochloride]
2 | 240 nM | NC(N)=NC(=O)c1cc(I)c(O)cc1Cl [Example 2, 2-Chloro-4-hydroxy-5-iodobenzoylguanidine hydrochloride]
3 | 100 nM | NC(N)=NC(=O)c1cc(I)c(O)c(I)c1Cl [Example 3, 2-Chloro4-hydroxy-3,5-diiodobenzoylguanidine hydrochloride]
4 | 140 nM | NC(N)=NC(=O)c1cc(C(F)(F)F)c(O)cc1Cl [Example 4, 2-Chloro4-hydroxy-5-trifluoromethylbenzoylguanidine hydrochloride]
